For the data set, the system named is rodent carcinogenicity bioassays, tumor incidence. As to the kind of experiment: CCRIS carcinogenicity studies. The procedure, abridged: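 Archive of carcinogenicity, mutagenicity, tumor promotion and tumor inhibition results drawn from journals, NCI reports and other sources, expert-reviewed; covers 1985-2011 and is no longer updated.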

SMILES strings stand for the structures. Active and inactive are the calls of the source. No rule for the calls is given here.

As to `FC(Cl)(Cl)Cl`, the carcinogen call was “inactive; negative” (Species: MOUSE, Strain/Sex: B6C3F1/FEMALE, Route: GAVAGE, Dose: 0, 1962, 3925 MG/KG, TWA, Dose: 0, 1962, 3925 MG/KG, TWA); “inactive; negative” (Species: MOUSE, Strain/Sex: B6C3F1/MALE, Route: GAVAGE, Dose: 0, 1962, 3925 MG/KG, TWA, Dose: 0, 1962, 3925 MG/KG, TWA); “inactive; negative” (Species: MOUSE, Strain/Sex: SWISS/FEMALE, Route: INHALATION, Dose: 0, 1000, 5000 PPM 4 HR/D 5 D/WK FOR 78 WK (STUDY DURATION: LIFETIME), Dose: 0, 1000, 5000 PPM 4 HR/D 5 D/WK FOR 78 WK (STUDY DURATION: LIFETIME)); “inactive; negative” (Species: MOUSE, Strain/Sex: SWISS/MALE, Route: INHALATION, Dose: 0, 1000, 5000 PPM 4 HR/D 5 D/WK FOR 78 WK (STUDY DURATION: LIFETIME), Dose: 0, 1000, 5000 PPM 4 HR/D 5 D/WK FOR 78 WK (STUDY DURATION: LIFETIME)); “inactive; negative” (Species: RAT, Strain/Sex: SPRAGUE-DAWLEY/FEMALE, Route: INHALATION, Dose: 0, 1000, 5000 PPM 4 HR/D 5 D/WK FOR 104 WK (STUDY DURATION: LIFETIME), Dose: 0, 1000, 5000 PPM 4 HR/D 5 D/WK FOR 104 WK (STUDY DURATION: LIFETIME)); “inactive; negative” (Species: RAT, Strain/Sex: SPRAGUE-DAWLEY/FEMALE, Route: INHALATION, Dose: 0, 1000, 5000 PPM IN AIR 4 HR/D 5 D/WK FOR 104 WK (STUDY DURATION: LIFETIME), Dose: 0, 1000, 5000 PPM IN AIR 4 HR/D 5 D/WK FOR 104 WK (STUDY DURATION: LIFETIME), Tumor Site: Type of Lesion: [BRAIN WAS ONLY SITE EVALUATED]). In addition, the carcinogen call runs as follows: (Species: RAT, Strain/Sex: SPRAGUE-DAWLEY/MALE, Route: INHALATION, Dose: 0, 1000, 5000 PPM 4 HR/D 5 D/WK FOR 104 WK (STUDY DURATION: LIFETIME), Dose: 0, 1000, 5000 PPM 4 HR/D 5 D/WK FOR 104 WK (STUDY DURATION: LIFETIME)) “inactive; negative”; (Species: RAT, Strain/Sex: SPRAGUE-DAWLEY/MALE, Route: INHALATION, Dose: 0, 1000, 5000 PPM IN AIR 4 HR/D 5 D/WK FOR 104 WK (STUDY DURATION: LIFETIME), Dose: 0, 1000, 5000 PPM IN AIR 4 HR/D 5 D/WK FOR 104 WK (STUDY DURATION: LIFETIME), Tumor Site: Type of Lesion: [BRAIN WAS ONLY SITE EVALUATED]) “inactive; negative”.

`CCN(CC)CCCNC(=O)Cn1ncc(-c2ccccc2)c1-c1ccccc1`: the carcinogen call (Species: RAT, Strain/Sex: SPRAGUE-DAWLEY/FEMALE, Route: GAVAGE, Dose: 0, 20, 80, 160 MG/KG 1/D FOR 1 YR (STUDY DURATION: 1 YR), Dose: 0, 20, 80, 160 MG/KG 1/D FOR 1 YR (STUDY DURATION: 1 YR)) was “inactive; negative” and the carcinogen call (Species: RAT, Strain/Sex: SPRAGUE-DAWLEY/MALE, Route: GAVAGE, Dose: 0, 20, 80, 160 MG/KG 1/D FOR 1 YR (STUDY DURATION: 1 YR), Dose: 0, 20, 80, 160 MG/KG 1/D FOR 1 YR (STUDY DURATION: 1 YR)) was “inactive; negative”.

`O=NN1CCOCC1`: the carcinogen call reads like this: (Species: FISH, Route: ORAL, Tumor Site: Type of Lesion: LIVER) “active; positive”; (Species: HAMSTER, Route: ORAL, Tumor Site: Type of Lesion: LIVER) “active; positive”; (Species: HAMSTER, Route: SUBCUTANEOUS, Tumor Site: Type of Lesion: TRACHEA, NASAL CAVITY) “active; positive”; (Species: HAMSTER, Strain/Sex: SYRIAN/MALE, Route: INHALATION, Dose: 0, 14.4 MG/M3 4 HR/D 4-5 D/WK FOR 5 WK FOR A DAILY DOSE OF 0, 1.8 MG/KG (STUDY DURATION: 91 WK), Dose: 0, 14.4 MG/M3 4 HR/D 4-5 D/WK FOR 5 WK FOR A DAILY DOSE OF 0, 1.8 MG/KG (STUDY DURATION: 91 WK), Tumor Site: Type of Lesion: LIVER: HEPATOCELLULAR CARCINOMA OR HEMANGIOENDOTHELIOMA OR CARCINOMA, FORESTOMACH: PAPILLOMA, TRACHEA: PAPILLOMA, Tumor Site: Type of Lesion: LIVER: HEPATOCELLULAR CARCINOMA OR HEMANGIOENDOTHELIOMA OR CARCINOMA, FORESTOMACH: PAPILLOMA, TRACHEA: PAPILLOMA) “active; positive”; (Species: HAMSTER, Strain/Sex: SYRIAN/MALE, Route: INTRAGASTRIC, Dose: 0, 26 MG/ML IN 0.2 ML STERILIZED WATER 1/WK FOR 26 WK (TOTAL DOSE 135 MG) (STUDY DURATION: LIFESPAN), Tumor Site: Type of Lesion: NASAL CAVITY: CARCINOMA, TRACHEA: ADENOMA) “active; positive”; (Species: MOUSE, Route: ORAL, Tumor Site: Type of Lesion: LIVER, LUNG) “active; positive”. The carcinogen call reads like this: (Species: MOUSE, Strain/Sex: STRAIN-A/FEMALE, Route: ORAL, Dose: 0, 0.2 UMOL/ML IN DRINKING WATER FOR 10 WK (TOTAL DOSE: 0, 54 UMOL) FOLLOWED BY TAP WATER FOR 20 WK (STUDY DURATION: 30, Tumor Site: Type of Lesion: LUNG: TUMORS) “active; positive”; (Species: RAT, Route: ORAL, Tumor Site: Type of Lesion: KIDNEY, LIVER) “active; positive”; (Species: RAT, Strain/Sex: F344/FEMALE, Route: GAVAGE, Dose: 0, 10 MG/WK FOR A TOTAL DOSE OF 1.9 MMOL (STUDY DYRATION: 30 WK), Tumor Site: Type of Lesion: ESOPHAGUS: TUMOR, LIVER: TUMOR, THYROID: TUMOR, Tumor Site: Type of Lesion: ESOPHAGUS: TUMOR, LIVER: TUMOR, THYROID: TUMOR) “active; positive”; (Species: RAT, Strain/Sex: F344/FEMALE, Route: INTRAVESICULAR, Dose: 0, 5 MG IN 0.2 ML ETHANOL: DEIONIZED WATER (1:3) 2/WK FOR 30 WK (TOTAL DOSE 2.6 MMOL) (STUDY DURATION: LIFESPAN), Tumor Site: Type of Lesion: LIVER: TUMOR, NASAL MUCOSA: TUMOR, ESOPHAGUS: TUMOR, Tumor Site: Type of Lesion: LIVER: TUMOR, NASAL MUCOSA: TUMOR, ESOPHAGUS: TUMOR) “active; positive”; (Species: RAT, Strain/Sex: F344/FEMALE, Route: ORAL, Dose: 0, 26.5 MG/L IN DRINKING WATER 5 D/WK FOR 50 WK (TOTAL DOSE: 0; 1.1 MMOL) (STUDY DURATION: 124 WK), Dose: 0, 26.5 MG/L IN DRINKING WATER 5 D/WK FOR 50 WK (TOTAL DOSE: 0; 1.1 MMOL) (STUDY DURATION: 124 WK), Tumor Site: Type of Lesion: LIVER: HEPATOCELLULAR TUMOR, HEMANGIOSARCOMA) “active; positive”; (Species: RAT, Strain/Sex: F344/FEMALE, Route: ORAL, Dose: 40 MG/L IN DRINKING WATER FOR 50 WK, Tumor Site: Type of Lesion: LIVER: HEPATOCELLULAR CARCINOMA, HEMANGIOENDOTHELIAL SARCOMA, ESOPHAGUS: PAPILLOMA, CARCINOMA) “active; positive”. The carcinogen call is, setting by setting: (Species: RAT, Strain/Sex: F344/MALE, Route: ORAL, Dose: 0, 0.02% IN DRINKING WATER FOR 8 WK (STUDY DURATION: 20 WK), Tumor Site: Type of Lesion: LIVER: HEPATOCELLULAR CARCINOMA) “active; positive”; (Species: RAT, Strain/Sex: F344/MALE, Route: ORAL, Dose: 16, 40 MG/L IN DRINKING WATER FOR 50 WK, Tumor Site: Type of Lesion: LIVER: HEPATOCELLULAR CARCINOMA, HEMANGIOENDOTHELIAL SARCOMA, ESOPHAGUS: PAPILLOMA) “active; positive”; (Species: RAT, Strain/Sex: SD/G/MALE, Route: ORAL, Dose: 0, 0.02% IN DRINKING WATER FOR 8 WK (STUDY DURATION: 20 WK)) “inactive; negative”; (Species: RAT, Strain/Sex: SPRAGUE-DAWLEY/FEMALE, Route: INHALATION, Dose: 0, 7.7 MG/M3 4 HR/D 4-5 D/WK FOR 6 WK FOR A DAILY DOSE OF 0, 0.5 MG/KG (STUDY DURATION: 124 WK), Dose: 0, 7.7 MG/M3 4 HR/D 4-5 D/WK FOR 6 WK FOR A DAILY DOSE OF 0, 0.5 MG/KG (STUDY DURATION: 124 WK), Tumor Site: Type of Lesion: LIVER: HEPATOCELLULAR CARCINOMA, NEOPLASTIC NODULE) “active; positive”; (Species: RAT, Strain/Sex: WS/MALE, Route: ORAL, Dose: 0, 0.02% IN DRINKING WATER FOR 8 WK (STUDY DURATION: 20 WK), Tumor Site: Type of Lesion: LIVER: HEPATOCELLULAR CARCINOMA) “active; positive”.

For the origin of these results see PubChem BioAssay AID1259411 (Chemical Carcinogenesis Research Information System (CCRIS), 2018).
